Reference: patent US10519134B2, “Pyrazole compounds and methods of making and using same” (Lundbeck La Jolla Research Center, Inc., priority 2015, dated 2019)

Experiments:
[1] = biological target: T1, MAGL (Mus musculus, UniProt O35678); test: In vitro competitive activity-based protein profiling (mouse), MAGL gel band; assay type: biochemical; conditions: for IC50: mouse; for inhibition at 1 µM: read-out: MAGL % inh. 1 μM
T1 construct: Proteomes (mouse brain membrane fraction or cell lysates); from tissue; host or cells: mouse brain membrane fraction (or cell lysates)
T1 sequence (O35678 1-303): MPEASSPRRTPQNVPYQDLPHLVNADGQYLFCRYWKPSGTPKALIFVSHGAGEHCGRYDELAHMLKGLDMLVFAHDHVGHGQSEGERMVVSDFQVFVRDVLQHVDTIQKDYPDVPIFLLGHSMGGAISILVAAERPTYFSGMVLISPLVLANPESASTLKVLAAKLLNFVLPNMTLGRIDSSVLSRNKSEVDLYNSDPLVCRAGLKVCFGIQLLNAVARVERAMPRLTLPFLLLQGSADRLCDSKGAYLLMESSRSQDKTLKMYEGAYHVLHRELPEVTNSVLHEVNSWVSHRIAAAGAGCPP
How it was run: (§1)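 Competitive ABPP: inhibitors at varying concentrations were given 30 min at 37 °C with mouse brain membranes or cell lysates (1.0 mg/mL total protein) before 30 min labelling by FP-Rh or HT-01 (stock 50 μM in DMSO). Residual hydrolase activity read as in-gel fluorescence of MAGL and FAAH bands.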

[2] = biological target: T2, FAAH (Mus musculus, UniProt O08914); test: In vitro competitive activity-based protein profiling (mouse), FAAH gel band; assay type: biochemical; conditions: for IC50: mouse; for inhibition at 1 µM: read-out: FAAH % inh. 1 μM
T2 construct: Proteomes (mouse brain membrane fraction or cell lysates); from tissue; host or cells: mouse brain membrane fraction (or cell lysates)
T2 sequence (O08914 1-579): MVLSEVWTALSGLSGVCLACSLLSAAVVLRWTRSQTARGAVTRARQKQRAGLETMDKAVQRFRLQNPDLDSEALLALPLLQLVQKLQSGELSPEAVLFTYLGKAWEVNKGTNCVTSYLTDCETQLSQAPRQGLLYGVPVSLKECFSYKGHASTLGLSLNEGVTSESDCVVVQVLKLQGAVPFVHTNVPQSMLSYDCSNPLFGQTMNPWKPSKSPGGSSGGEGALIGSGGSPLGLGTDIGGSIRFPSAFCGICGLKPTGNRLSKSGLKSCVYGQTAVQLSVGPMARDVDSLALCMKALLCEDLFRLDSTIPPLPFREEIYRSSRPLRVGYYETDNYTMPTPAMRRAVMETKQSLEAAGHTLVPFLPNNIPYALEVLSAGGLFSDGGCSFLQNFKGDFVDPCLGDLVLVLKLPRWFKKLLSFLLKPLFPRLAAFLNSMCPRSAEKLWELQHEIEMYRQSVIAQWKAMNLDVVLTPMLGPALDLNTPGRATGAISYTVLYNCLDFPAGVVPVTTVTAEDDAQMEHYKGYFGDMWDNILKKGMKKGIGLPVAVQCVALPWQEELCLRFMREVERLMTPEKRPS
How it was run: as §1

[3] = biological target: T1, MAGL; test: Mouse brain proteomes from inhibitor treated mice (oral gavage, sacrificed 4 h after administration); assay type: in vivo; conditions: read-out: MAGL % inh. 5 mg/kg
Description: Compounds are tested to assess their MAGL and other serine hydrolase activity using the following in vitro and in vivo assays.
Preparation of Mouse Brain Proteomes from Inhibitor Treated Mice.
Inhibitors were administered to wild-type C57Bl/6J by oral gavage in a vehicle of polyethylene glycol. Each animal was sacrificed 4 h following administration and brain proteomes were prepared and analyzed according to previously established methods (See Niphakis, M. J., et al. (2011) ACS Chem. Neurosci. and Long, J. Z., et al. Nat. Chem. Biol. 5:37-44)

| SMILES | IC50 [1] [nM] | inhibition at 1 µM [1] [%] | IC50 [2] [µM] | inhibition at 1 µM [2] [%] | inhibition at 5 mg/kg [3] [%] |
| --- | --- | --- | --- | --- | --- |
| CC(=O)Nc1ccn(C(=O)N2CCC3(CCCN3Cc3cc(N4C5CCC4COC5)cc(C(F)(F)F)c3)CC2)n1 [Example 62, N-(1-(1-(3-(3-oxa-8-azabicyclo[3.2.1]octan-8-yl)-5-(trifluoromethyl)benzyl)-1,8-diazaspiro[4.5]decane-8-carbonyl)-1H-pyrazol-3-yl)acetamide] | ≤ 100 | ≥ 75 | 1 to 10 | 0 to 25 | 0 to 25 |
| CS(=O)(=O)Nc1ccn(C(=O)N2CCN(Cc3ccc(Cl)cc3N3CCCC3)CC2)n1 [Example 127, N-(1-(4-(4-chloro-2-(pyrrolidin-1-yl)benzyl)piperazine-1-carbonyl)-1H-pyrazol-3-yl) methanesulfonamide] | ≤ 100 | ≥ 75 | 1 to 10 | 0 to 25 | ≥ 75 |
| CC(=O)Nc1ccn(C(=O)N2CCC3(CCCN3Cc3ccc(C(F)(F)F)cc3N3CCC4(CCOCC4)C3)CC2)n1 [Example 28, N-(1-(1-(2-(8-oxa-2-azaspiro[4.5]decan-2-yl)-4-(trifluoromethyl)benzyl)-1,8-diazaspiro[4.5]decane-8-carbonyl)-1H-pyrazol-3-yl)acetamide] | ≤ 100 | ≥ 75 | 1 to 10 | 0 to 25 | 0 to 25 |
| CC(=O)Nc1ccn(C(=O)N2CCC3(CCCN3Cc3ccc(C(F)(F)F)cc3N3CC4CCC(C3)O4)CC2)n1 [Example 20, N-(1-(1-(2-(8-oxa-3-azabicyclo[3.2.1]octan-3-yl)-4-(trifluoromethyl)benzyl)-1,8-diazaspiro[4.5]decane-8-carbonyl)-1H-pyrazol-3-yl)acetamide] | ≤ 100 | ≥ 75 | 1 to 10 | 0 to 25 | 0 to 25 |
| CC(=O)Nc1ccn(C(=O)N2CCN(Cc3ccc(C(F)(F)F)cc3N3CCN(C4CC4)CC3)CC2)n1 [Example 47, N-(1-(4-(2-(4-cyclopropylpiperazin-1-yl)-4-(trifluoromethyl)benzyl)piperazine-1-carbonyl)-1H-pyrazol-3-yl)acetamide] | ≤ 100 | ≥ 75 | 1 to 10 | 0 to 25 | 25 to 50 |
| CC(=O)Nc1ccn(C(=O)N2CCN(Cc3ccc(C(F)(F)F)cc3N3CCN(C(C)=O)CC3)CC2)n1 [Example 42, N-(1-(4-(2-(4-acetylpiperazin-1-yl)-4-(trifluoromethyl)benzyl)piperazine-1-carbonyl)-1H-pyrazol-3-yl)acetamide] | ≤ 100 | ≥ 75 | 1 to 10 | 0 to 25 | 0 to 25 |
| CC(=O)Nc1ccn(C(=O)N2CCN(Cc3ccc(C(F)(F)F)cc3N3CCOCC3)CC2)n1 [Example 3, N-(1-(4-(2-morpholino-4-(trifluoromethyl)benzyl)piperazine-1-carbonyl)-1H-pyrazol-3-yl)acetamide] | ≤ 100 | ≥ 75 | 1 to 10 | 0 to 25 | 50 to 75 |
| CC(=O)Nc1ccn(C(=O)N2CCN(Cc3ccc(C(F)(F)F)cc3N3CCCCC3)CC2)n1 [Example 39, N-(1-(4-(2-(piperidin-1-yl)-4-(trifluoromethyl)benzyl)piperazine-1-carbonyl)-1H-pyrazol-3-yl)acetamide] | ≤ 100 | ≥ 75 | 1 to 10 | 0 to 25 | ≥ 75 |
| CS(=O)(=O)Nc1ccn(C(=O)N2CCC3(CCCN3Cc3ccc(C(F)(F)F)c(Cl)c3)CC2)n1 [Example 161, N-(1-(1-(3-chloro-4-(trifluoromethyl)benzyl)-1,8-diazaspiro[4.5]decane-8-carbonyl)-1H-pyrazol-3-yl) methanesulfonamide] |  | ≥ 75 |  | 0 to 25 | 0 to 25 |
| CCc1cc(CN2CCCC23CCN(C(=O)n2ccc(NC(C)=O)n2)CC3)ccc1F [Example 95, N-(1-(1-(3-ethyl-4-fluorobenzyl)-1,8-diazaspiro[4.5]decane-8-carbonyl)-1H-pyrazol-3-yl)acetamide] | ≤ 100 | ≥ 75 | 1 to 10 | 0 to 25 | ≥ 75 |
| CC(=O)Nc1ccn(C(=O)N2CCC3(CCCN3Cc3cc(OCC(=O)N4CCCC4)cc(C(F)(F)F)c3)CC2)n1 [Example 90, N-(1-(1-(3-(2-oxo-2-(pyrrolidin-1-yl)ethoxy)-5-(trifluoromethyl)benzyl)-1,8-diazaspiro[4.5]decane-8-carbonyl)-1H-pyrazol-3-yl)acetamide] | ≤ 100 | ≥ 75 | 1 to 10 | 0 to 25 | 0 to 25 |
| CS(=O)(=O)Nc1ccn(C(=O)N2CCN(Cc3ccc(C(F)(F)F)cc3N3CC4CCC(C3)O4)CC2)n1 [Example 130, N-(1-(4-(2-(8-oxa-3-azabicyclo[3.2.1]octan-3-yl)-4-(trifluoromethyl)benzyl)piperazine-1-carbonyl)-1H-pyrazol-3-yl) methanesulfonamide] | ≤ 100 | ≥ 75 | 1 to 10 | 0 to 25 | 50 to 75 |
| CC(=O)Nc1ccn(C(=O)N2CCC3(CCCN3Cc3cc(OC4CCN(C5CC5)CC4)cc(C(F)(F)F)c3)CC2)n1 [Example 82, N-(1-(1-(3-(1-cyclopropylpiperidin-4-yloxy)-5-(trifluoromethyl)benzyl)-1,8-diazaspiro[4.5]decane-8-carbonyl)-1H-pyrazol-3-yl)acetamide] | ≤ 100 | ≥ 75 | 1 to 10 | 0 to 25 | 0 to 25 |
| CC(=O)Nc1ccn(C(=O)N2CCN(Cc3ccc(Cl)cc3N3CCCC3)CC2)n1 [Example 5, N-(1-(4-(4-chloro-2-(pyrrolidin-1-yl)benzyl)piperazine-1-carbonyl)-1H-pyrazol-3-yl)acetamide] | ≤ 100 | ≥ 75 | 1 to 10 | 0 to 25 | ≥ 75 |
| CC(=O)Nc1ccn(C(=O)N2CCC3(CCCN3Cc3ccc(Cl)c(N4CCOCC4)c3)CC2)n1 [Example 103, N-(1-(1-(4-chloro-3-morpholinobenzyl)-1,8-diazaspiro[4.5]decane-8-carbonyl)-1H-pyrazol-3-yl)acetamide] | ≤ 100 | ≥ 75 | 1 to 10 | 0 to 25 | 0 to 25 |
| CC(=O)Nc1ccn(C(=O)N2CCN(Cc3ccc(Cl)cc3N3CCC(C(=O)O)CC3)CC2)n1 [Example 248, 1-(2-((4-(3-acetamido-1H-pyrazole-1-carbonyl)piperazin-1-yl)methyl)-5-chlorophenyl) piperidine-4-carboxylic acid] | ≤ 100 | ≥ 75 | 1 to 10 | 0 to 25 | 0 to 25 |
| CC(=O)Nc1ccn(C(=O)N2CCN(Cc3ccc(C(F)(F)F)cc3Oc3cncnc3)CC2)n1 [Example 73, N-(1-(4-(2-(pyrimidin-5-yloxy)-4-(trifluoromethyl)benzyl)piperazine-1-carbonyl)-1H-pyrazol-3-yl)acetamide] | ≤ 100 | ≥ 75 | 1 to 10 | 0 to 25 | 0 to 25 |
